# Legend:
# [1] = system: MxA, ISG-15, OAS-1, and ISG-56 mRNA; assay type: cell-based, human
# [2] = system: human fibroblasts; assay type: cell-based
Compound,basal ISG mRNA levels in SW-R [1],protection of fibroblasts from VSV [2]
"CCCC(CCC)C(=O)O [VPA, valproic acid]",reduced basal mRNA levels for three out of four ISGs,
IFN-α,,completely protect
